Test results taken from publication PMC5872333, “Antifungal Potential of Host Defense Peptide Mimetics in a Mouse Model of Disseminated Candidiasis” (Journal of Fungi, 2018).
≈ marks a conversion by molar mass, not a printed value. Read-outs that look alike come from different tables or passages of the source.

Tests used:
[1] = system: C. albicans; test: Yeast membrane permeability, propidium iodide incorporation (flow cytometry); format: cell-based, Candida albicans
Method: C. albicans was suspended in RPMI/MOPS media to a total concentration of 2 × 10^6 cfu/mL. One ml aliquots of the C. albicans suspension were treated with each mimetic compound at a concentration of 32 µg/mL, using 95% ethanol as positive control. Samples were incubated with the mimetics at 30 °C for 0, 5, 15 and 30 min. After treatment, samples were centrifuged at 5000 rpm for 5 min. Supernatants were removed and pellets were washed twice with 1 mL of PBS. […] Samples were analyzed by flow cytometry (FACSCalibur, Becton Dickinson, Immunocytometry Systems, San Jose, CA, USA) to assess percent uptake of PI.

[2] = system: Candida albicans, strain SC5314; test: MIC/MFC, CLSI broth microdilution, C. albicans; format: cell-based
Method: (§1) A standard invasive candidiasis strain of C. albicans SC5314 was used for peptide mimetic compounds screening. Non-albicans Candida species (NAC) C. dubliniensis (NCPF3949), C. glabrata (ATCC 90030), C. krusei (ATCC 6258), C. parapsilosis (ATCC 22019) and C. tropicalis (ATCC 750) (obtained from the laboratory of David Perlin, PHRI/Rutgers), were cultured on YPD (1% yeast extract, 2% peptone, 2% dextrose, pH 5.7) agar at 37°C and were used for all experimental studies. Fluconazole resistant clinical isolates of C. glabrata from five different patients and C. tropicalis from one patient were collected from the clinical microbiology laboratory, Shands Hospital, University of Florida, Gainesville, FL, USA.
(§2) Candida albicans […], NAC species and fluconazole-resistant clinical isolates of invasive candidiasis strains of C. glabrata and C. tropicalis were used for minimum inhibitory concentration (MIC) and minimum fungicidal concentration (MFC) studies of lead compounds. MICs were determined using the Clinical and Laboratory Standards Institute (CLSI) standard broth microdilution method. Suspensions of C. albicans were prepared by measuring optical density at 595 nm (OD595) of 1.0 in phosphate buffered saline (PBS). HDP mimetic compounds were diluted in 50 µL RPMI/MOPS cell culture medium in a 96-well plate (tissue culture treated; Costar, Corning Incorporated, Corning, NY, USA). To each well, a suspension (50 µL) of Candida was added, and then plate was incubated at 37 °C in a humidified chamber for a period of 24 h. To determine the MFC, a sample (100 µL) from the well defined as having the MIC and the wells with other three higher concentrations were plated onto YPD agar. Candida colonies were observed after 24 h. The MFC is defined as the lowest concentration of compound at which no colonies are observed. All MIC and MFC assays were performed in duplicate.

[3] = system: C. krusei (ATCC 6258); test: MIC broth microdilution, C. krusei; format: cell-based, Candida krusei; details: Pichia kudriavzevii, ATCC6258; read-out: NAC species MIC, C. krusei
Method: as §1, §2

[4] = system: C. dubliniensis (NCPF3949); test: MIC broth microdilution, C. dublinensis; format: cell-based; details: Candida dubliniensis, read-out: NAC species MIC, C. dublinensis
Method: as §1, §2

[5] = system: C. glabrata (ATCC 90030); test: MIC broth microdilution, C. glabrata; format: cell-based, Candida glabrata; details: Nakaseomyces glabratus, ATCC90030; read-out: NAC species MIC, C. glabrata
Method: as §1, §2

[6] = Mammalian cell cytotoxicity, MTS viability assay, 3T3; format: cell-based; details: mouse, 3T3 fibroblasts (ATCC CRL-1658), 3T3 cells, 1 h exposure without serum
Method: Cytotoxicity (50% effective concentration (EC50)) was determined against mouse 3T3 fibroblasts (ATCC CRL-1658), OKF6/TERT-1 cells (oral keratinocytes), and human transformed liver HepG2 cells (ATCC HB-8065), using an MTS viability assay (Promega, Fitchburg, WI, USA). Growth medium was replaced with medium without serum, and eight 2-fold dilutions of compound were added. Following incubation for 1 h at 37 °C, compounds were removed, and medium containing serum was returned. Viability was determined using an MTS viability assay (CellTiter 96 aqueous nonradioactive cell proliferation assay, Promega).

[7] = system: C. parapsilosis (ATCC 22019); test: MIC broth microdilution, C. parapsilosis; format: cell-based, Candida parapsilosis; details: Lodderomyces parapsilosis, ATCC22019; read-out: NAC species MIC, C. parapsilosis
Method: as §1, §2

[8] = Maximum tolerated dose (MTD) determination; details: mouse, in vivo, sc
Method: Female CD-1 mice (Charles River Laboratories), 8–10 weeks old, >20 g were used to determine the MTD. Mice were housed individually in stainless steel, wire-bottom cages to minimize access to urine and feces and fed Harlan Teklad Certified Global Diet® with tap water ad libitum. Mice were acclimated to the study room at least 3 days prior to dosing. Mice (3 per group) were dosed with a subcutaneous (SC) bolus injection beginning with 10 mg/kg of the test compound at a concentration of 2 mg/mL. Doses were lowered two-fold for subsequent groups to find the MTD. The dose volume was […], calculated using the weight of the animal on the day of injection. There were 3 dose events, with 2 days between each event. […] Body weights were obtained daily until the day of euthanization with a CO2 overdose. Any mortality during the study was also recorded. MTD data were obtained by Ricerca Biosciences, LLC, Concord, OH, USA. MTD of each HDP mimetic in CD-1 mice was determined and our studies utilized doses beginning with 0.5X MTD.

[9] = system: C. tropicalis (ATCC 750); test: MIC broth microdilution, C. tropicalis; format: cell-based; details: Candida tropicalis, ATCC750; read-out: NAC species MIC, C. tropicalis
Method: as §1, §2

[10] = system: whole human blood; test: Hemolysis assay; format: cell-based; details: 0.5 h, 30 min, 37 °C
Method: Peptide mimetic compounds were tested in duplicate using a hemolysis assay previously published. Briefly, two-fold serial dilutions starting at 2 mg/mL in 150 mM NaCl (saline), 20% DMA (Alfa Aesar, Ward Hill, MA, US), or 10% kleptose in saline. 3% saponin (Fluka) in saline was used as a positive control. Each dilution of each compound (25 µL) was plated in a 96-well round bottomed plate and 25 µL of whole human blood (BIORECLAMATION, Westbury, NY, USA) was added to each sample and mixed for 10 second. The blood was Type O, from 2 males and 2 females, collected with potassium EDTA to prevent clotting. Plates were incubated on a shaker for 30 min at 37 °C, then centrifuged at 600× g for 5 min. 5 µL of the supernatant was transferred to a 96-well flat-bottomed plate with 200 µL H2O in each well and mixed for 5 min. Absorbance was read at 405 nm (Spectramax 250, Molecular Devices, San Jose, CA, USA). Percent hemolysis was then calculated as:
P = (OD405 (PMX compound) – OD405 (control))/(OD405 (Saponin) – OD405 (control))
Curves were fitted to report an HC50 (50% hemolysis) value for each compound: […]

[11] = system: C. albicans; test: MIC assay in the presence of CaCl2 (divalent cation inhibition); format: cell-based; details: Candida albicans, 2.5 mM CaCl2
Method: as §2, with “The MFC is defined as the lowest concentration of compound at which no colonies are observed. All MIC and MFC assays were performed in duplicate.” left out
To assess the effect of a divalent cations on the electrostatic interaction between mimetics and cell membrane of yeast, we used calcium chloride at concentrations of 2, 5, 7.5 and 10 […]. […] At each concentration of this cation, the MIC of mimetics were determined by the method described above.

[12] = system: C. albicans SC5314; test: Immunosuppressed mouse model of invasive candidiasis, kidney burden; format: in vivo, CD-1 mice; details: 20 mg/kg by gavage 2 h after infection, 24 h, average of four independent experiments
Method: C. albicans SC5314 were grown in YPD broth (Difco laboratories, Detroit, MI, USA) and stock cultures were stored at −80 °C. The frozen stocks were first grown on YPD plates and kept at 4 °C. Prior to each experiment, a stock inoculum suspension of Candida was prepared in YPD broth and incubated at 30 °C with shaking at 200 rpm for 12 h. The culture was washed twice with sterile 1X phosphate buffered saline (PBS), counted with a hemocytometer, and diluted with PBS to get the desired concentration of 3.5 × 10^5 cfu/mL. 100 µL was injected intravenously (IV) into each mouse via the tail vein. […]
Male CD-1 mice, 6–8 weeks old (20–22 g), were made neutropenic with two intraperitoneal (IP) injections of 150 mg/kg in 10 mL/kg cyclophosphamide four days and one day before inoculation. […] 2 h after C. albicans inoculation, mimetic compounds were injected subcutaneously (SC) at 0.5X of the MTD (determined by […] as described). Fluconazole (20 mg/kg) was administered to another group by oral gavage at 2 h post inoculation, as a positive control for the experiments, to confirm the ability to quantify an effect on kidney burden. […] Serial dilutions of the tissue homogenates were conducted, 0.1 mL aliquots were spread on YPD agar plates, and the plates incubated at 35 °C overnight. cfu/g kidneys were determined from colony counts. […]

[13] = C. albicans SC5314, 50% human serum, read-out: MIC+50% Human serum
[14] = C. albicans SC5314, without human serum
[15] = C. albicans SC5314, without human serum, 24 h, read-out: MIC
[16] = 32 µg/mL HDP mimetic, C. albicans

**Q.** For `CCO` [95% ethanol, ethanol, reference compound], which “PI entered the cell” value ([1]; positive control, within 7 min) is on record?
**A.** 100%

**Q.** Which MIC [2, 13] does the source give for `N=C(N)N1CCN(c2ccc(-c3cc(-c4ccc(N5CCN(C(=N)N)CC5)cc4)ncn3)cc2)CC1` [Compound 1] here?
**A.** 4 µg/mL (≈ 8.25 µM)

**Q.** And the MFC [2, 14]?
**A.** 8 µg/mL (≈ 16.5 µM)

**Q.** What about the MIC [2, 15] of the same compound?
**A.** 4 µg/mL (≈ 8.25 µM)

**Q.** What about the MIC [3] of the same compound?
**A.** 32 µg/mL (≈ 66 µM)

**Q.** And the MIC [4]?
**A.** 8 µg/mL (≈ 16.5 µM)

**Q.** And the MIC [5]?
**A.** 4 µg/mL (≈ 8.25 µM)

**Q.** And the EC50 at 1 h [6]?
**A.** 311 µM

**Q.** And the MIC [7]?
**A.** 4 to 8 µg/mL (≈ 8.25 to 16.5 µM)

**Q.** What about the MTD [8] of the same compound?
**A.** 10 mg/kg free base

**Q.** What about the “time to maximum incorporation of PI” value [1, 16] of the same compound?
**A.** 30 min

**Q.** And the MIC [9]?
**A.** 4 to 8 µg/mL (≈ 8.25 to 16.5 µM)

**Q.** What about the EC50 [10] of the same compound?
**A.** > 1790 µM

**Q.** For `N=C(N)NCCCc1cc(CCCNC(=N)N)cc(NC(=O)c2ccc(C(=O)Nc3cc(CCCNC(=N)N)cc(CCCNC(=N)N)c3)cc2)c1` [Compound 2], which MIC [2, 13] is on record?
**A.** 4 µg/mL (≈ 5.61 µM)

**Q.** And the MFC [2, 14]?
**A.** 16 µg/mL (≈ 22.4 µM)

**Q.** And the MIC [2, 15]?
**A.** 4 µg/mL (≈ 5.61 µM)

**Q.** And the MIC [3]?
**A.** 8 µg/mL (≈ 11.2 µM)

**Q.** What about the MIC [4] of the same compound?
**A.** 32 µg/mL (≈ 44.9 µM)

**Q.** And the MIC [5]?
**A.** 8 µg/mL (≈ 11.2 µM)

**Q.** What about the EC50 at 1 h [6] of the same compound?
**A.** 358 µM

**Q.** And the MIC [11]?
**A.** > 60 µg/mL

**Q.** What about the MIC [7] of the same compound?
**A.** 1 µg/mL (≈ 1.4 µM)

**Q.** And the MTD [8]?
**A.** 10 mg/kg free base

**Q.** And the “time to maximum incorporation of PI” value [1, 16]?
**A.** 30 min

**Q.** What about the MIC [9] of the same compound?
**A.** 8 µg/mL (≈ 11.2 µM)

**Q.** What about the EC50 [10] of the same compound?
**A.** > 1160 µM

**Q.** Which results are given for `NCCCOc1cc(OCCCN)cc(-c2ccc3c(c2)c2cc(-c4cc(OCCCN)cc(OCCCN)c4)ccc2n3CCCN)c1` [Compound 4]?
**A.** MIC [2, 13]: 4 µg/mL (≈ 5.98 µM); MFC [2, 14]: 8 µg/mL (≈ 12 µM); MIC [2, 15]: 4 µg/mL (≈ 5.98 µM); MIC [3]: 16 µg/mL (≈ 23.9 µM); MIC [4]: 4 µg/mL (≈ 5.98 µM); MIC [5]: 2 µg/mL (≈ 2.99 µM); EC50 at 1 h [6]: 436 µM; MIC [7]: 2 µg/mL (≈ 2.99 µM); MTD [8]: 20 mg/kg free base; rate of membrane activity (PI incorporation) ([1]; 32 µg/mL HDP mimetic, C. albicans, comparison among compounds): most rapid membrane activity; MIC [9]: 2 to 4 µg/mL (≈ 2.99 to 5.98 µM); EC50 [10]: > 1170 µM

**Q.** Which MIC [2, 15] does the source give for `OC(Cn1cncn1)(Cn1cncn1)c1ccc(F)cc1F` [Fluconazole, fluconazole, reference compound] here?
**A.** 0.25 µg/mL (≈ 0.816 µM)

**Q.** What about the “log10 reduction in kidney cfu” value [12] of the same compound?
**A.** 3 log
